Laboratory results taken from patent US20070167492A1, “Molluscicidal agents” (priority 2003, published 2007).

What was measured:
[1] = tested on: Winter wheat (Kampa race) seeds; assay: Seed germination test of treated winter wheat seeds (rolled in paper); assay type: in vivo; conditions: 3x50 seeds, 6 days at 22° C.
Description: (§1) Winter wheat (Kampa race; thousand grain weight of 51 grams) was used in an experiment to test the efficacy of the compositions of the present inventions in relation to known molluscicidal compounds. The seeds were disinfected for soil and germ moulds with 2 ml of Beret Gold (comprising 25 g/l of the fungicide fludioxonil) per kg of seed.
(§2) Sepiret® was added to all dry disinfections, and is the coating that was added to all agents of which the formulation was not suitable for coating.
Table 2 provides an overview of the amounts of diluent water and Sepiret® used for treating the wheat seeds. Table 2 further provides the quality of the coating and the percentages of germinating seeds in a seed germination test. In this test, the percentage of germination of 3×50 seeds, rolled in paper, was determined after 6 days at 22° C. (continuously) and a 16 hours light regime.

[2] = tested on: Deroceras reticulatum (grey field slug); assay: Example 1: pot test, treated winter wheat seed with 5 adult slugs per pot, 14 days; assay type: in vivo; conditions: for differences in the number of damaged seeds / protection / slug controlling effect (conclusion): Example 1, dosages tested; for protection / slug controlling effect (conclusion): winter wheat seed treatment
Description: as §1, §2
The seeds were sown in earthenware pots with an internal diameter of 20 cm and a height of 18 cm, filled with 7 cm of potting soil (Trio BV, Weesp, The Netherlands) and with a top 2 cm of white quartz sand. A total of 40 seeds was placed in each pot, in a pattern of concentric circles on top of the quartz sand, the germ facing upwards. To each pot a total of 5 adult specimens of the test slug Deroceras reticulatum (grey field slug) were added. The pots were incubated at ±15° C. with a relative humidity of ±90% and light regime of ±12 hours light/12 hours dark, without artificial lighting. The pots were not irrigated overhead. In total, 4 parallel tests were performed for each test.
Following the addition of the slugs, the number of damaged seeds was counted after 2, 3, 7, 10 and 14 days. The number of plants present (germinated and not eaten or damaged by the slugs) was determined 3, 7, 10 and 14 days after the start of the test. […] The number of dead slugs was counted 2, 3, 7, 10 and 14 days after the start of the test (but not removed). Finally, on days 3, 7, 10 and 14 after the start of the test, the number fecal pellets was counted.
The data were statistically analysed by using F-tests (α=0.05) and pair-wise Student-tests.

[3] = 2 ml formulated per kg seed, 2 days after sowing
[4] = 2 ml formulated per kg seed, 3 days after sowing
[5] = 2 ml formulated per kg seed, 7 days after sowing
[6] = 2 ml formulated per kg seed, 10 days after sowing
[7] = 2 ml formulated per kg seed, 14 days after sowing
[8] = 10 ml formulated per kg seed, 2 days after sowing
[9] = 10 ml formulated per kg seed, 3 days after sowing
[10] = 10 ml formulated per kg seed, 7 days after sowing
[11] = 10 ml formulated per kg seed, 10 days after sowing
[12] = 10 ml formulated per kg seed, 14 days after sowing
[13] = 4 ml formulated per kg seed, 2 days after sowing
[14] = 4 ml formulated per kg seed, 3 days after sowing
[15] = 4 ml formulated per kg seed, 7 days after sowing
[16] = 4 ml formulated per kg seed, 10 days after sowing
[17] = 4 ml formulated per kg seed, 14 days after sowing
[18] = 8 ml formulated per kg seed, 2 days after sowing
[19] = 8 ml formulated per kg seed, 3 days after sowing
[20] = 8 ml formulated per kg seed, 7 days after sowing
[21] = 8 ml formulated per kg seed, 10 days after sowing
[22] = 8 ml formulated per kg seed, 14 days after sowing

## CC=C(C)C(=O)OC1CC(OC(C)=O)C2(C(=O)OC)COC3C2C12COC(O)(C(=O)OC)C2C(C)(C12OC1(C)C1CC2OC2OC=CC21O)C3O (stereo not shown) [azadirachtine]
[1]; 2 ml formulated per kg seed
  Percentage germinated: 90%
[1]; 10 ml formulated per kg seed
  Percentage germinated: 65%
[2]; 2 ml formulated per kg seed
  number of utilizable plants after 14 days: 0.8
  percentage of damaged seeds after 14 days: 95%
[2]; [3]
  Mean number of damaged seeds per pot: 5.8
  Mean number of dead slugs per pot: 0.3
[2]; [4]
  Mean number fecal pellets per pot: 62
  Mean number of damaged seeds per pot: 20.8
  Mean number of dead slugs per pot: 0.3
  Mean number of plants present per pot: 5.3
[2]; [5]
  Mean number fecal pellets per pot: 106
  Mean number of damaged seeds per pot: 37.0
  Mean number of dead slugs per pot: 0.3
  Mean number of plants present per pot: 1.0
[2]; [6]
  Mean number fecal pellets per pot: 139
  Mean number of damaged seeds per pot: 37.0
  Mean number of dead slugs per pot: 0.3
  Mean number of plants present per pot: 1.3
[2]; [7]
  Mean number fecal pellets per pot: 156
  Mean number of damaged seeds per pot: 38.0
  Mean number of dead slugs per pot: 0.5
  Mean number of plants present per pot: 0.8
[2]; 10 ml formulated per kg seed
  number of utilizable plants after 14 days: 2.3
  percentage of damaged seeds after 14 days: 86%
[2]; [8]
  Mean number of damaged seeds per pot: 4.0
  Mean number of dead slugs per pot: 0
[2]; [9]
  Mean number fecal pellets per pot: 32
  Mean number of damaged seeds per pot: 13.0
  Mean number of dead slugs per pot: 0
  Mean number of plants present per pot: 4.8
[2]; [10]
  Mean number fecal pellets per pot: 93
  Mean number of damaged seeds per pot: 30.5
  Mean number of dead slugs per pot: 0
  Mean number of plants present per pot: 2.8
[2]; [11]
  Mean number fecal pellets per pot: 130
  Mean number of damaged seeds per pot: 32.5
  Mean number of dead slugs per pot: 0.3
  Mean number of plants present per pot: 3.3
[2]; [12]
  Mean number fecal pellets per pot: 138
  Mean number of damaged seeds per pot: 34.5
  Mean number of dead slugs per pot: 0.3
  Mean number of plants present per pot: 3.8
[2]
  differences in the number of damaged seeds: did not result in significant differences
  protection / slug controlling effect (conclusion): no sufficient protection to the plants

## COc1cc(C=CC(=O)O)cc(OC)c1 [dimethoxycinnamic acid, 3,5-dimethoxycinnamic acid]
[1]; 2 ml formulated per kg seed
  Percentage germinated: 75%
[1]; 4 ml formulated per kg seed
  Percentage germinated: 75%
[1]; 8 ml formulated per kg seed
  Percentage germinated: 38%
[2]; 2 ml formulated per kg seed
  number of utilizable plants after 14 days: 0
  percentage of damaged seeds after 14 days: 99%
[2]; [3]
  Mean number of damaged seeds per pot: 5.0
  Mean number of dead slugs per pot: 0
[2]; [4]
  Mean number fecal pellets per pot: 66
  Mean number of damaged seeds per pot: 17.5
  Mean number of dead slugs per pot: 0
  Mean number of plants present per pot: 3.5
[2]; [5]
  Mean number fecal pellets per pot: 115
  Mean number of damaged seeds per pot: 39.5
  Mean number of dead slugs per pot: 0.3
  Mean number of plants present per pot: 0
[2]; [6]
  Mean number fecal pellets per pot: 133
  Mean number of damaged seeds per pot: 39.3
  Mean number of dead slugs per pot: 0.3
  Mean number of plants present per pot: 0
[2]; [7]
  Mean number fecal pellets per pot: 141
  Mean number of damaged seeds per pot: 39.8
  Mean number of dead slugs per pot: 0.8
  Mean number of plants present per pot: 0
[2]; 4 ml formulated per kg seed
  number of utilizable plants after 14 days: 1.5
  percentage of damaged seeds after 14 days: 87%
[2]; [13]
  Mean number of damaged seeds per pot: 4.3
  Mean number of dead slugs per pot: 0
[2]; [14]
  Mean number fecal pellets per pot: 46
  Mean number of damaged seeds per pot: 17.3
  Mean number of dead slugs per pot: 0.3
  Mean number of plants present per pot: 9.3
[2]; [15]
  Mean number fecal pellets per pot: 120
  Mean number of damaged seeds per pot: 31.8
  Mean number of dead slugs per pot: 0.3
  Mean number of plants present per pot: 1.8
[2]; [16]
  Mean number fecal pellets per pot: 138
  Mean number of damaged seeds per pot: 32.0
  Mean number of dead slugs per pot: 0.3
  Mean number of plants present per pot: 2.0
[2]; [17]
  Mean number fecal pellets per pot: 158
  Mean number of damaged seeds per pot: 34.8
  Mean number of dead slugs per pot: 1.0
  Mean number of plants present per pot: 2.0
[2]; 8 ml formulated per kg seed
  number of utilizable plants after 14 days: 1.0
  percentage of damaged seeds after 14 days: 84%
[2]; [18]
  Mean number of damaged seeds per pot: 1.8
  Mean number of dead slugs per pot: 0
[2]; [19]
  Mean number fecal pellets per pot: 60
  Mean number of damaged seeds per pot: 13.0
  Mean number of dead slugs per pot: 0
  Mean number of plants present per pot: 1.5
[2]; [20]
  Mean number fecal pellets per pot: 106
  Mean number of damaged seeds per pot: 30.3
  Mean number of dead slugs per pot: 0
  Mean number of plants present per pot: 1.0
[2]; [21]
  Mean number fecal pellets per pot: 150
  Mean number of damaged seeds per pot: 31.5
  Mean number of dead slugs per pot: 0
  Mean number of plants present per pot: 1.5
[2]; [22]
  Mean number fecal pellets per pot: 158
  Mean number of damaged seeds per pot: 33.8
  Mean number of dead slugs per pot: 0
  Mean number of plants present per pot: 1.5
[2]
  differences in the number of damaged seeds: did not result in significant differences
  protection / slug controlling effect (conclusion): no slug controlling effect
